# Assay results from patent publication US7125564B2, “Water soluble and palatable complexes” (Lavipharm Laboratories, Inc., priority 2001, dated 2006).
# Counter-ions that a name gives are not always drawn.
# Assays:
# [1] = physchem; conditions: thermodynamic from solid
# [2] = cited from earlier work; for bioavailability: oral administration
# [3] = cited from earlier work
# [4] = cited from earlier work; remark: listed apart in the source
# [5] = Water solubility of active agent with and without glycyrrhizin ammonium (24 h rotation, filtration, HPLC); conditions: versus control with zero glycyrrhizin, 0.1 M glycyrrhizin ammonium, distilled water, room temperature
compound,measurement,setting,value
"NC(N)=Nc1nc(CSCCC(N)=NS(N)(=O)=O)cs1 [famotidine, N′(aminosulfonyl)-3-[[[2-[(diaminomethylene)amino]-4-thiazolyl]methyl]thio] propanimidamide]",solubility at 24 h,[1]; water,< 1000 µg/mL
same,time to peak plasma concentration,[2]; after oral administration,1 to 3.5 h
same,bioavailability,[2],approximately 43%
same,effect of food on bioavailability,[2]; tablet formulation,unaffected by food
same,intrinsic water solubility,[3],278 µg/mL
same,pKa,[3],6.8
same,solubility in ethanol,[3]; ethanol,insoluble
same,solubility in glacial acetic acid,[3]; glacial acetic acid,freely soluble
same,solubility in water,[3]; water,very slightly soluble
CC(C)(C)c1ccc(C(O)CCCN2CCC(C(O)(c3ccccc3)c3ccccc3)CC2)cc1 (stereo not drawn) [terfenadine],fraction of a tablet given by mouth changed to metabolites,"[2]; oral tablet, first-pass effect",99.5%
"O=C1CC2(CCCC2)CC(=O)N1CCCCN1CCN(c2ncccn2)CC1 [buspirone, 8-[4-[4-(2-pyrimidinyl)1-piperazinyl]butyl]-8-azaspiro(4,5)-decane-7,9-dione]",solubility at 24 h,[1]; aqueous with cosolvent or surfactant or cyclodextrin,44000 µg/mL
same,solubility at 24 h,[1]; water,380 µg/mL
same,biological half-life,[4]; in man,2–11 hours
same,interindividual variation of the maximum plasma concentration,[4]; oral,up to 10 fold
"5-[-2-ethoxy-5-(4-methylpiperazin-1ylsulphonyl)phenyl]-1-methyl -3-n-propyl-1,6-dihydro-7H-pyrazolo[4,3-d]pyrimidine [sildenafil]",increase of solubility through complexation with glycyrrhizin,[5],200 fold
same,increase of solubility through complexation with glycyrrhizin,[5]; listed as sildenfil,more than 200 fold
CCCc1nn(C)c2c(=O)[nH]c(-c3cc(S(=O)(=O)N4CCN(C)CC4)ccc3OCC)nc12 [Sildenafil citrate],bioavailability,[2],about 40%
same,solubility,[3]; formulated as a regular film tablet,6000 to 8000 µg/mL
